Broadly, the inhibition in vivo is the share of the control response that was lost under treatment. Read a low inhibition in vivo as little suppression. Usually inhibition stands for the percentage by which the read-out fell short of the control. Lower therefore signals little suppression. As a reminder, the Ki is the dissociation constant of the complex between target and ligand, obtained from inhibition or displacement. Lower therefore signals a stronger hold on the target.

The values that follow come from patent US4748240A, “Psychotropic bicyclic imides” (American Home Products Corporation, priority 1987, dated 1988).

The structures appear in SMILES notation. Like-named read-outs stand apart in the source and are kept apart here.

The subject of test [1] is conditioned avoidance responding. Kind of test: Conditioned avoidance, shelf-jump response. To be noted: Rattus norvegicus, ip; single dose 40 mg/kg. The test is classed as in vivo, rat (male CD, Charles River). The source says:
(§1) The antipsychotic properties of the compounds of this invention were established by standard pharmacologically accepted procedures involving conditioned avoidance studies in which trained male CD rats (Charles River), 400-450 g. body weight are exposed to a fifteen second warning tone (conditioned stimulus) continued for an additional fifteen seconds accompanied by electric shock. The rat can avoid the electric shock by jumping to an exposed shelf (shelf-jump response). A response during the initial warning tone is considered an avoidance response, while a response during shock delivery is considered as escape response. The shelf-jump response test procedure follows that of Herman et al., Comm. in Psychopharm., 3, pp. 165-171 (1979). The compounds of this invention were tested at a single dose (40 mg./kg. i.p.) in this procedure and were rated relative to their inhibition of conditioned avoidance responding. A similar test procedure (Discrete Trial) in which a lever press was substituted for a shelf-jump was used to establish the oral (p.o.) activity of the test compounds. Orally active compounds were tested over a full dose range and the Avoidance Block activities reported as "AB50 's" (mg./kg.).

For test [2] the test system is unchanged. Briefly: Conditioned avoidance, Discrete Trial (lever press). It counts as in vivo, rat (male CD, Charles River). Conditions: for Conditioned Avoidance, Discrete Trial AB50: p.o.; for ED50: Rattus norvegicus, po, read-out: Conditioned Avoidance, Discrete Trial AB50.
Source text: as §1

The subject of test [3] is apomorphine-induced stereotyped behavior and climbing. Kind of test: Antagonism of apomorphine-induced stereotyped behavior and climbing. It counts as in vivo, mouse (CF-1, Charles River). Conditions: apomorphine 1 mg/kg s.c.; for Apomorphine Antagonism, Stereotypy ED50 / Apomorphine Antagonism, Climbing ED50: p.o.; for ED50: Mus musculus, po. On the procedure: Readings are repeated every five minutes during a thirty minute test session. […] The ratio of the ED50 for stereotyped behavior of the ED50 for climbing is calculated.

The next test addresses T1, D-2 dopamine receptor (Rattus norvegicus, UniProt P61169).
T1 construct: from tissue; host or cells: homogenized limbic brain tissue
Kind of test: [^3 H] Spiroperidol binding inhibition (D-2 dopamine receptor, homogenized limbic brain tissue). The source says:
The results of this testing with compounds representative of the invention whose production is exemplified, infra, are as follows: […]

Test [4] concerns the target T2, 5-HT1A serotonin receptor (Rattus norvegicus, UniProt P19327).
T2 construct: from tissue
T2 sequence (P19327 1-422): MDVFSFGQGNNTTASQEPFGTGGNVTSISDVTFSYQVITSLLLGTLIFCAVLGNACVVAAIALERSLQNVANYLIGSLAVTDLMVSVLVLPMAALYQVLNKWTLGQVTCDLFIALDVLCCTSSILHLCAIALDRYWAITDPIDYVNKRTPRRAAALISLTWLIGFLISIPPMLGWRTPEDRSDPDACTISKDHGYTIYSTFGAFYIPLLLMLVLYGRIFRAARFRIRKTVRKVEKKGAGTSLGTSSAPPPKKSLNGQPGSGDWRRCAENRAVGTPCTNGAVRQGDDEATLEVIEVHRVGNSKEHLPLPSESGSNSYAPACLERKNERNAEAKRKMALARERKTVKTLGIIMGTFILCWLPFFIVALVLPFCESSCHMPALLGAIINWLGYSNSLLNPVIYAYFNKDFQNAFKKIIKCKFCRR
Briefly: Inhibition of [^3 H] 8-OH DPAT binding.
Source text: 8-OH DPAT (dipropylaminotetralin) from the 5-HT1A serotonin receptor by the procedure of Hall et al., J. Neurochem.

Setting [5] is: read-out: Apomorphine Antagonism, Climbing ED50.
The mark [6] stands for this setting: read-out: Apomorphine Antagonism, Stereotypy ED50.

T1 sequence (P61169 whole entry): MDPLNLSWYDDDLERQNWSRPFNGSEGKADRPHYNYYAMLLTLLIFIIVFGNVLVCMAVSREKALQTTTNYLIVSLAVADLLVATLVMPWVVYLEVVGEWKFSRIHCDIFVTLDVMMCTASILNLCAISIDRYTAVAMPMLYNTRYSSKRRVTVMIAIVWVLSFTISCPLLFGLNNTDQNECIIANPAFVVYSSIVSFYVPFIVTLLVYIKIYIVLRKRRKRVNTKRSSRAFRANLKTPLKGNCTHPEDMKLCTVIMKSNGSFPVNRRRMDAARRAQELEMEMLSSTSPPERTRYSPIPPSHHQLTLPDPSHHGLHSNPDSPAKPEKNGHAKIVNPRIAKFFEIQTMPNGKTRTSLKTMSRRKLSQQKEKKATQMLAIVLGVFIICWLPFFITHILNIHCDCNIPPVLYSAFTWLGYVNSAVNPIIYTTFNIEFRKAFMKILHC

In turn, `O=C1C2CCCC(C2)C(=O)N1CCCCN1CCN(c2ncccn2)CC1` [Example 1, 3-[4-[4-(2-Pyrimidinyl)-1-piperazinyl]butyl]-3-azabicyclo[3.3.1]nonane-2,4-dione] yielded an inhibition in vivo at 40 mg/kg in test [1] of approximately 80%. For the same molecule, in test [2], the “Conditioned Avoidance, Discrete Trial AB50” value (from here on “Conditioned Avoidance”) is “inactive”. Further, the “Apomorphine Antagonism, Stereotypy ED50” value in test [3] is “inactive”. For the same molecule, the inhibition at 1 µM at D-2 dopamine receptor amounted to 38%. In test [4], affinity was put at a Ki of 10 nM.
As for `O=C1C2CC=CCC(C2)C(=O)N1CCCCN1CCN(c2ncccn2)CC1` [Example 21, 8-[4-[4-(2-Pyrimidinyl)-1-piperazinyl]butyl]-8-azabicyclo[4.3.1]dec-3-ene-7,9-dione], the inhibition in vivo at 40 mg/kg in test [1] is more than 20%. Further, in test [2], the “Conditioned Avoidance” value is “inactive”. Further, the ED50 in test [3] (setting [5]) is 11.1 mg/kg. Also, in test [3], the “Apomorphine Antagonism, Stereotypy ED50” value is “inactive”. Also, on D-2 dopamine receptor, the inhibition at 1 µM was found to be 63%. Further, in test [4], the inhibitory constant (Ki) amounted to 15 nM.
Molecule `O=C1C2CCCC(C(=O)N1CCCCN1CCN(c3ncccn3)CC1)[S+]2[O-]` (stereo not shown) [Example 6, 3-[4-[4-(2-Pyrimidinyl)-1-piperazinyl]butyl]-9-thia-3-azabicyclo[3.3.1]nonane-2,4-dione-9-oxide] had an inhibition in vivo at 40 mg/kg in test [1] of more than 20%. For the same molecule, the “Conditioned Avoidance” value in test [2] was “inactive”. For the same molecule, in test [3], the “Apomorphine Antagonism, Climbing ED50” value is “inactive” and the “Apomorphine Antagonism, Stereotypy ED50” value is “inactive”. The same molecule had an inhibition at 1 µM at D-2 dopamine receptor of 14%. The same molecule had a Ki in test [4] of 90 nM.
Consider `O=C1C2CCC(C2)C(=O)N1CCCCN1CCN(c2ncccn2)CC1` [Example 2, 3-[4-[4-(2-Pyrimidinyl)-1-piperazinyl]butyl]-3-azabicyclo[3.2.1]octane-2,4-dione], for which the inhibition in vivo at 40 mg/kg in test [1] is more than 20%. Further, the “Conditioned Avoidance” value in test [2] is given as “weak”. The “Apomorphine Antagonism, Stereotypy ED50” value in test [3] was “inactive”. The values for the inhibition constant (Ki) (on D-2 dopamine receptor; in test [4]) were 2610 nM and 106 nM, respectively.
On to `O=C1C2CCC(C2)C(=O)N1CCCCN1CCN(c2cccc(Cl)c2)CC1` [Example 11, 3-[4-[4-(3-Chlorophenyl)-1-piperazinyl]butyl]-3-azabicyclo[3.2.1]octane-2,4-dione], for which the inhibition in vivo at 40 mg/kg in test [1] is approximately 80%. For the same molecule, the ED50 worked out at 27.1 mg/kg in test [2], 0.79 mg/kg in test [3] (setting [5]) and 2.2 mg/kg in test [3] (setting [6]). Further, the inhibition constant (Ki) stood at 130 nM on D-2 dopamine receptor and 3.89 nM in test [4].
With `O=C1C2CCCC(S2)C(=O)N1CCCCN1CCN(c2ncccn2)CC1` [Example 5, 3-[4-[4-(2-Pyrimidinyl)-1-piperazinyl]butyl]-9-thia-3-azabicyclo[3.3.1]nonane-2,4-dione], the inhibition in vivo at 40 mg/kg in test [1] is more than 20%. In addition, in test [2], the ED50 amounted to 47.3 mg/kg. Also, in test [3], the “Apomorphine Antagonism, Climbing ED50” value was “inactive” and the “Apomorphine Antagonism, Stereotypy ED50” value was “inactive”. In addition, 1 µM produced 27% inhibition at D-2 dopamine receptor. Besides, in test [4], the Ki amounted to 16 nM.
In test [1], `O=C1C2CCCC(S2)C(=O)N1CCCCN1CCN(c2cncc(Cl)n2)CC1` [Example 14, 3-[4-[4-(6-Chloro-2-pyrazinyl)-1-piperazinyl]butyl]-9-thia-3-azabicyclo[3.3.1]nonane-2,4-dione] gave an inhibition in vivo at 40 mg/kg of more than 20%. The ED50 in test [2] turned out to be 35.6 mg/kg. In addition, the “Apomorphine Antagonism, Stereotypy ED50” value in test [3] was “inactive”. For the same molecule, the inhibition at 1 µM on D-2 dopamine receptor was determined as 34%. In test [4], the affinity, expressed as Ki, was 35.2 nM.
The molecule `CC1(C)C2CCC1C(=O)N(CCCCN1CCN(c3cncc(Cl)n3)CC1)C2=O` [Example 18, 3-[4-[4-(6-Chloro-2-pyrazinyl)-1-piperazinyl]butyl]-8,8-dimethyl-3-azabicyclo[3.2.1]octane-2,4-dione] came in with an inhibition in vivo at 40 mg/kg in test [1] of more than 20%. Further, the “Conditioned Avoidance” value in test [2] is “inactive”. Further, the ED50 in test [3] (setting [5]) was 43 mg/kg. In addition, the “Apomorphine Antagonism, Stereotypy ED50” value in test [3] was “inactive”. In addition, the results for the inhibition at 1 µM (at D-2 dopamine receptor; in test [4]) were 21% and 76%, respectively.
Turning to `O=C1C2CCC(S2)C(=O)N1CCCCN1CCN(c2ncccn2)CC1` [Example 4, 3-[4-[4-(2-Pyrimidinyl)-1-piperazinyl]butyl]-8-thia-3-azabicyclo[3.2.1]octane-2,4-dione], the inhibition in vivo at 40 mg/kg in test [1] is more than 20%. Further, in test [2], the “Conditioned Avoidance” value was “inactive”. For the same molecule, the ED50 in test [3] (setting [5]) came out at 53.3 mg/kg. The “Apomorphine Antagonism, Stereotypy ED50” value in test [3] is “inactive”. At D-2 dopamine receptor, this molecule registered an inhibition at 1 µM of 12%. The molecule further came in with a Ki in test [4] of 46 nM.
`O=C1C2CCCC(O2)C(=O)N1CCCCN1CCN(c2cccc(C(F)(F)F)c2)CC1` [Example 19, 3-[4-[4-[3-(Trifluoromethyl)phenyl]-1-piperazinyl]butyl]-9-oxa-3-azabicyclo[3.3.1]nonane-2,4-dione] yielded an inhibition in vivo at 40 mg/kg in test [1] of approximately 80%. The ED50 amounted to 27 mg/kg in test [2], 9.06 mg/kg in test [3] (setting [5]) and 31 mg/kg in test [3] (setting [6]). The same molecule displayed an inhibition at 1 µM at D-2 dopamine receptor of 97%. In test [4], the affinity, expressed as Ki, was 15 nM.
Consider `O=C1C2CCCC(O2)C(=O)N1CCCCN1CCN(c2cncc(Cl)n2)CC1` [Example 15, 3-[4-[4-(6-Chloro-2-pyrazinyl)-1-piperazinyl]butyl]-9-oxa-3-azabicyclo[3.3.1]nonane-2,4-dione], for which, in test [1], the inhibition in vivo at 40 mg/kg was approximately 80%. The “Conditioned Avoidance” value in test [2] is “weak”. Moreover, the “Apomorphine Antagonism, Stereotypy ED50” value in test [3] was “inactive”. Besides, the inhibition at 1 µM amounted to 21% at D-2 dopamine receptor and 63% in test [4].
Molecule `O=C1C2CCC(C2)C(=O)N1CCCCN1CCN(c2cccc(C(F)(F)F)c2)CC1` [Example 10, 3-[4-[4-[3-(Trifluoromethyl)phenyl]-1-piperazinyl]butyl]-3-azabicyclo[3.2.1]octane-2,4-dione] showed an inhibition in vivo at 40 mg/kg in test [1] of approximately 80%. For the same molecule, the results for the ED50 in test [2], in test [3] (setting [5]) and in test [3] (setting [6]) were 7.03 mg/kg, 1.05 mg/kg and 4.98 mg/kg, respectively. Further, the Ki at D-2 dopamine receptor was found to be 80 nM; in test [4] it was 3.61 nM.
For `COc1ccccc1N1CCN(CCCCN2C(=O)C3CCC(C3)C2=O)CC1` [Example 17, 3-[4-[4-(2-Methoxyphenyl)-1-piperazinyl]butyl]-3-azabicyclo[3.2.1]octane-2,4-dione], the inhibition in vivo at 40 mg/kg in test [1] is approximately 80%. The ED50 in test [2] is 29.4 mg/kg; in test [3] (setting [5]), 0.83 mg/kg; in test [3] (setting [6]), 5.83 mg/kg. This molecule came in with an inhibition at 1 µM at D-2 dopamine receptor of 0%. For the same molecule, in test [4], the affinity, expressed as Ki, was 5 nM.
`O=C1C2CCC(C2)C(=O)N1CCCN1CCN(c2cccc(C(F)(F)F)c2)CC1` [Example 22, 3-[3-[4-[3-(Trifluoromethyl)phenyl]-1-piperazinyl]propyl]-3-azabicyclo[3.2.1]octane-2,4-dione]: the inhibition in vivo at 40 mg/kg in test [1] is approximately 80%. Besides, the “Conditioned Avoidance” value in test [2] is reported as “weak”. Moreover, the ED50 in test [3] (setting [5]) was 29.5 mg/kg; in test [3] (setting [6]), 43.3 mg/kg. For the same molecule, the inhibition at 1 µM on D-2 dopamine receptor is 38%. The same molecule had a Ki in test [4] of 4 nM.
`O=C1C2CCCC(C2)C(=O)N1CCCCN1CCN(c2cncc(Cl)n2)CC1` [Example 7, 2-[4-[4-(6-Chloro-2-pyrazinyl)-1-piperazinyl]butyl]-3-azabicyclo[3.3.1]nonane-2,4-dione] returned an inhibition in vivo at 40 mg/kg in test [1] of approximately 80%. In addition, the ED50 in test [2] was found to be 34.1 mg/kg. For the same molecule, the “Apomorphine Antagonism, Stereotypy ED50” value in test [3] is “inactive”. In addition, testing at 1 µM at D-2 dopamine receptor gave an inhibition of 21%. In test [4], this molecule displayed a Ki of 31 nM.
